According to patent US8563714B2, “Bridged spiro [2.4] heptane derivatives as ALX receptor and/or FPRL2 agonists” (Actelion Pharmaceuticals Ltd., priority 2009, dated 2013):

Key:
human ALX receptor = molecular target: T1, human ALX receptor (Homo sapiens, UniProt P25090); test: Intracellular calcium measurements (FLIPR), agonistic activity in HEK293-hALXR-Gα16 cells; type: cell-based; details: Fluo-4 calcium FLIPR, normalized to WKYMVm 10 nM
T1 construct: expressed in transfected cells; host or cells: HEK293 (HEK293-hALXR-Gα16)
T1 sequence (P25090 1-351): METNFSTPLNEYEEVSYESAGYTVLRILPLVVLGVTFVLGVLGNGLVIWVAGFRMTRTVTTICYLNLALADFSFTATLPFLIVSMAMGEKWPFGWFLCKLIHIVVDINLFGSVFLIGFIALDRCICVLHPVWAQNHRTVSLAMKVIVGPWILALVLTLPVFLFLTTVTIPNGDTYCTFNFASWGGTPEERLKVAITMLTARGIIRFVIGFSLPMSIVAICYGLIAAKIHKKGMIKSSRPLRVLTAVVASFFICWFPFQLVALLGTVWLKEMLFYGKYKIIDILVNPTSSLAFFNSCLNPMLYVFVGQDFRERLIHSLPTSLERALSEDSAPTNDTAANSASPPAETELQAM
Summary of the method: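 HEK293 cells expressing hALXR and Gα16 were loaded with 1 μM Fluo-4 AM and 20 mM HEPES for 60 min at 37°C, then exposed to serially diluted compound. FLIPR fluorescence was read at ex 488/em 540 nm. Baseline-subtracted peak responses were normalized to 10 nM WKYMVm.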

human FPRL2 = molecular target: T2, human FPRL2 (Homo sapiens, UniProt P25089); test: Intracellular calcium measurements (FLIPR), agonistic activity in HEK293-hFPRL2-Gα16 cells; type: cell-based; details: Fluo-4 calcium FLIPR, normalized to GLY14-Humanin 100 nM
T2 construct: expressed in transfected cells; host or cells: HEK293 (HEK293-hFPRL2-Gα16)
T2 sequence (P25089 1-353): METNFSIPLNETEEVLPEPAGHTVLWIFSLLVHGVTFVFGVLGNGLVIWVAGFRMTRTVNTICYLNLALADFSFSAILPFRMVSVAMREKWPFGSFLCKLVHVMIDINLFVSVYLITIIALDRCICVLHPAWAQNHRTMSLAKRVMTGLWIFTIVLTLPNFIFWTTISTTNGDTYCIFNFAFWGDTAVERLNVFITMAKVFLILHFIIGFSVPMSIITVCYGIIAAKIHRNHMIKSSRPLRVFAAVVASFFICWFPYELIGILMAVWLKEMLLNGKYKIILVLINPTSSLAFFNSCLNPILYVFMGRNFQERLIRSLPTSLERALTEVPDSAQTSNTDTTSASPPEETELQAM
Summary of the method: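 Peak values after baseline subtraction are expressed relative to 100 nM Gly14-Humanin; compounds diluted in assay buffer from 10 mM DMSO stocks.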

Structure (SMILES) | EC50 (human ALX receptor) | EC50 (human FPRL2)
CC(C)CNC(=O)[C@H]1[C@H](C(=O)Nc2ncc(Br)s2)[C@@H]2CC[C@H]1C21CC1 [Example 331, (5R)—N^5-(5-Bromo-thiazol-2-yl)-(6R)—N^6-(isobutyl)-(4S,7R)-[4,7-ethylene-spiro[2.4]heptane]-5,6-dicarboxamide] | 82 nM | 8250 nM
NCCCCNC(=O)[C@H]1[C@H](C(=O)Nc2ccc(Br)cc2)[C@@H]2C=C[C@H]1C21CC1 (relative stereo) [Example 5, (5R*)—N^5-(4-Bromophenyl)-(6R*)—N^6-(4-amino-butyl)-(4S*,7R*)-[4,7-ethenylene-spiro[2.4]heptane]-5,6-dicarboxamide] | 0.34 nM | 1160 nM
CC(C)CCN1CCC(NC(=O)[C@H]2[C@H](C(=O)NCCc3ccc(Cl)cc3)[C@@H]3C=C[C@H]2C32CC2)CC1 [Example 392, (5R)—N^5-(2-(4-Chlorophenyl)ethyl)-(6R)—N^6—(N-isopentyl-piperidin-4-yl)-(4S,7R)-[4,7-ethenylene-spiro[2.4]heptane]-5,6-dicarboxamide] | 10400 nM | 20 nM
CC(CCCNC(=O)[C@H]1[C@H](C(=O)Nc2ccc(Br)cc2)[C@@H]2C=C[C@H]1C21CC1)N1CCCC1 (stereo partly drawn) [Example 398, (5R)—N^5-(4-Bromophenyl)-(6R)—N^6-(4-(pyrrolidin-1-yl)pentyl)-(4S,7R)-[4,7-ethenylene-spiro[2.4]heptane]-5,6-dicarboxamide] | 1.8 nM | 7510 nM
CNCCCNC(=O)[C@H]1[C@H](C(=O)Nc2ncc(Br)s2)[C@@H]2CC[C@H]1C21CC1 [Example 414, (5R)—N^5-(5-Bromothiazol-2-yl)-(6R)—N^6-(3-(N-methylamino)-propyl)-(4S,7R)-[4,7-ethylene-spiro[2.4]heptane]-5,6-dicarboxamide] | 14 nM | 773 nM
O=C(NCCCCN1CCCC1)[C@H]1[C@H](C(=O)NCc2cccc(Cl)c2F)[C@@H]2C=C[C@H]1C21CC1 (racemic) [Example 349, (5R*)—N^5-(3-Chloro-2-fluorophenyl-methyl)-(6R*)—N^6-(4-pyrrolidino-butyl)-(4S*,7R*)-[4,7-ethenylene-spiro[2.4]heptane]-5,6-dicarboxamide] | 4720 nM | 200 nM
O=C(NCCCCN1CCCC1)[C@H]1[C@H](C(=O)NCc2ccc(Cl)cc2)[C@@H]2C=C[C@H]1C21CC1 (racemic) [Example 230, (5R*)—N^5-(4-Chloro-phenyl-methyl)-(6R*)—N^6-(4-pyrrolidin-1-yl-butyl)-(4S*,7R*)-[4,7-ethenylene-spiro[2.4]heptane]-5,6-dicarboxamide] | 31 nM | 65 nM
CCCCCCNC(=O)[C@H]1[C@H](C(=O)Nc2ccc(Br)cc2)[C@@H]2C=C[C@H]1C21CC1 (racemic) [Example 75, (5R*)—N^5-(4-Bromophenyl)-(6R*)—N^6-(hexyl)-(4S*,7R*)-[4,7-ethenylene-spiro[2.4]heptane]-5,6-dicarboxamide] | 73 nM | 7980 nM
O=C(NCCCCO)[C@H]1[C@H](C(=O)Nc2ncc(Br)s2)[C@@H]2CC[C@H]1C21CC1 [Example 405, (5R)—N^5-(5-Bromothiazol-2-yl)-(6R)—N^6-(4-hydroxybutyl)-(4S,7R)-[4,7-ethylene-spiro[2.4]heptane]-5,6-dicarboxamide] | 80 nM | 7840 nM
O=C(CC1CC1)NC[C@H]1[C@H](C(=O)Nc2ccc(Br)cc2)[C@@H]2C=C[C@H]1C21CC1 (racemic) [Example 184, (5R*)—N^5-(4-Bromo-phenyl)-(6R*)-6-[(2-cyclopropyl-acetylamino)-methyl]-(4S*,7R*)-[4,7-ethenylene-spiro[2.4]heptane]-5-carboxamide] | 315 nM | > 14500 nM
CC(=O)c1csc(NC(=O)[C@H]2[C@H](C(=O)NCCCCN3CCCC3)[C@H]3C=C[C@@H]2C32CC2)n1 (racemic) [Example 344, (5R*)—N^5-(4-Acetyl-thiazol-2-yl)-(6R*)—N^6-(4-pyrrolidino-butyl)-(4S*,7R*)-[4,7-ethenylene-spiro[2.4]heptane]-5,6-dicarboxamide] | 7850 nM | 414 nM
CCOCCCNC(=O)[C@H]1[C@H](C(=O)Nc2ccc(Br)cc2)[C@@H]2C=C[C@H]1C21CC1 (racemic) [Example 17, (5R*)—N^5-(4-Bromophenyl)-(6R*)—N^6-(3-ethoxy-propyl)-(4S*,7R*)-[4,7-ethenylene-spiro[2.4]heptane]-5,6-dicarboxamide] | 1.8 nM | 2010 nM

Further compounds by falling EC50 (human ALX receptor), results first:

EC50 (human ALX receptor) | EC50 (human FPRL2) | Structure (SMILES)
10000 nM | 214 nM | O=C(NCCCCN1CCCC1)[C@H]1[C@H](C(=O)Nc2nc3ccc(Cl)cc3s2)[C@@H]2C=C[C@H]1C21CC1 (racemic) [Example 154, (5R*)—N^5-(6-Chloro-benzothiazol-2-yl)-(6R*)—N^6-(4-pyrrolidin-1-yl-butyl)-(4S*,7R*)-[4,7-ethenylene-spiro[2.4]heptane]-5,6-dicarboxamide]
333 nM | 15200 nM | CC(C)(CO)NC(=O)[C@H]1[C@H](C(=O)Nc2ncc(Br)s2)[C@@H]2CC[C@H]1C21CC1 [Example 406, (5R)—N^5-(5-Bromothiazol-2-yl)-(6R)—N^6-(2-methyl-3-hydroxyprop-2-yl)-(4S,7R)-[4,7-ethylene-spiro[2.4]heptane]-5,6-dicarboxamide]
140 nM | 826 nM | CC(=O)c1csc(CNC(=O)[C@H]2[C@H](C(=O)NCCCCN3CCCC3)[C@H]3C=C[C@@H]2C32CC2)n1 (racemic) [Example 191, (5R*)—N^5-(4-Acetyl-thiazol-2-yl-methyl)-(6R*)—N^6-(4-pyrrolidin-1-yl-butyl)-(4S*,7R*)-[4,7-ethenylene-spiro[2.4]heptane]-5,6-dicarboxamide]
115 nM | 4070 nM | Cc1cc(C(=O)NC[C@H]2[C@H](C(=O)Nc3ccc(Br)cc3)[C@@H]3C=C[C@H]2C32CC2)nn1C (racemic) [Example 178, (5R*)—N^5-(4-Bromo-phenyl)-(6R*)-6-{[(1,5-dimethyl-1H-pyrazole-3-carbonyl)-amino]-methyl}-(4S*,7R*)-[4,7-ethenylene-spiro[2.4]heptane]-5-carboxamide]
54 nM | 1170 nM | O=C(NCC1CCNCC1)[C@H]1[C@H](C(=O)NCc2ccc(Br)cc2)[C@@H]2C=C[C@H]1C21CC1 (racemic) [Example 311, (5R*)—N^5-(4-Bromophenyl-methyl)-(6R*)—N^6-(piperidin-4-yl-methyl)-(4S*,7R*)-[4,7-ethenylene-spiro[2.4]heptane]-5,6-dicarboxamide]
17 nM | 4690 nM | O=C(NC1CCNCC1)[C@H]1[C@H](C(=O)Nc2ncc(Br)s2)[C@@H]2C=C[C@H]1C21CC1 [Example 323, (5R)—N^5-(5-Bromo-thiazol-2-yl)-(6R)—N^6-(piperidin-4-yl)-(4S,7R)-[4,7-ethenylene-spiro[2.4]heptane]-5,6-dicarboxamide]
1.3 nM | 71 nM | CN1CCN(CCCNC(=O)[C@H]2[C@H](C(=O)Nc3ccc(Br)cc3)[C@@H]3CC[C@H]2C32CC2)CC1 (racemic) [Example 111, (5R*)—N^5-(4-Bromophenyl)-(6R*)—N^6-(3-(4-methyl-piperazin-1-yl)-propyl)-(4S*,7R*)-[4,7-ethylene-spiro[2.4]heptane]-5,6-dicarboxamide]
